Consider five compounds from publication PMC5452035, “Structural insight into recognition of phosphorylated threonine‐4 of RNA polymerase II C‐terminal domain by Rtt103p” (EMBO Reports, 2017).

Residue numbers refer to the chain shown, from its start. Non-standard residues stand in square brackets, D forms with d. No end group written: not given here. pY = N[C@@H](Cc1ccc(OP(=O)(O)O)cc1)C(=O)O; FAM = 5,6-carboxyfluorescein

One experiment deals with T1, Rtt103p CID (Saccharomyces cerevisiae, UniProt Q05543).
T1 construct: Rtt103p CID (3‐131–6xHIS) was expressed and purified as previously described; 6xHis (C); made in house; host or cells: E. coli BL21-Codon Plus (DE3)-RIPL
T1 sequence (Q05543 3-131): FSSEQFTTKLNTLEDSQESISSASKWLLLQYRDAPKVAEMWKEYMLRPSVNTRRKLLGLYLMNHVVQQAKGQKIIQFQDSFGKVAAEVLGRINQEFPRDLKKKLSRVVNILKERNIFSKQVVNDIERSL
Briefly: Equilibrium binding by fluorescence anisotropy (FA), wild-type Rtt103p CID. Set-up: species or system yeast.

The target of the next experiment is T2, Rtt103p CID Q19A (Saccharomyces cerevisiae, UniProt Q05543, Q19A).
T2 construct: Rtt103p CID (3‐131–6xHIS) was expressed and purified as previously described; 6xHis (C); made in house; host or cells: E. coli BL21-Codon Plus (DE3)-RIPL
T2 sequence (Q05543 3-131 Q19A): T1 sequence (Q05543 3-131) with Q17A
Nature of the experiment: Equilibrium binding by fluorescence anisotropy (FA), Rtt103p CID Q19A mutant. Set-up: species or system yeast. The settings on record: Rtt103p CID Q19A mutant titrated into 10 nM FAM‐labelled CTD peptide, 10°C, pH 6.8, ± standard deviation of the fit. How it is done: The equilibrium binding of Rtt103p CID constructs to differently phosphorylated CTD was analysed by fluorescence anisotropy. The CTD peptides were N‐terminally labelled with the 5,6‐carboxyfluorescein (FAM). The measurements were conducted on a FluoroLog‐3 spectrofluorometer (Horiba Jobin‐Yvon Edison, NJ). The instrument was equipped with a thermostatted cell holder with a Neslab RTE7 water bath (Thermo Scientific). Samples were excited with vertically polarized light at 467 nm, and both vertical and horizontal emissions were recorded at 516 nm. All measurements were conducted at 10°C in 35 mM KH2PO4, 100 mM KCl (pH 6.8). Each data point is an average of three measurements. The experimental binding isotherms were analysed by DynaFit using 1:1 model with non‐specific binding 39.

With `C[C@@H](OP(=O)(O)O)[C@H](NC(=O)[C@@H]1CCCN1C(=O)[C@H](CO)NC(=O)[C@H](Cc1ccc(O)cc1)NC(=O)[C@H](CO)NC(=O)[C@@H]1CCCN1C(=O)[C@H](CO)NC(=O)[C@@H](NC(=O)[C@@H]1CCCN1C(=O)[C@H](CO)NC(=O)[C@H](Cc1ccc(O)cc1)NC(=O)[C@H](CO)NC(=O)[C@@H]1CCCN1C(=O)c1ccc2c(c1)C(=O)OC21c2ccc(O)cc2Oc2cc(O)ccc21)[C@@H](C)OP(=O)(O)O)C(=O)N[C@@H](CO)C(=O)N1CCC[C@H]1C(=O)N[C@@H](CO)C(=O)O` [Doubly phosphorylated pThr4‐CTD], the Kd on Rtt103p CID was found to be 6 ± 0.2 µM.

The compound `C[C@@H](O)[C@H](NC(=O)[C@@H]1CCCN1C(=O)[C@H](CO)NC(=O)[C@H](Cc1ccc(O)cc1)NC(=O)[C@H](CO)NC(=O)[C@@H]1CCCN1C(=O)[C@H](CO)NC(=O)[C@@H](NC(=O)[C@@H]1CCCN1C(=O)[C@H](COP(=O)(O)O)NC(=O)[C@H](Cc1ccc(O)cc1)NC(=O)[C@H](CO)NC(=O)[C@@H]1CCCN1C(=O)c1ccc2c(c1)C(=O)OC21c2ccc(O)cc2Oc2cc(O)ccc21)[C@@H](C)OP(=O)(O)O)C(=O)N[C@@H](CO)C(=O)N1CCC[C@H]1C(=O)N[C@@H](CO)C(=O)O` [PS YpSPpTSPS YSPTSPS] registered a Kd at Rtt103p CID of 43 ± 2 µM.

Regarding `C[C@@H](O)[C@H](NC(=O)[C@@H]1CCCN1C(=O)[C@H](CO)NC(=O)[C@H](Cc1ccc(O)cc1)NC(=O)[C@H](CO)NC(=O)[C@@H]1CCCN1C(=O)[C@H](CO)NC(=O)[C@@H](NC(=O)[C@@H]1CCCN1C(=O)[C@H](COP(=O)(O)O)NC(=O)[C@H](Cc1ccc(O)cc1)NC(=O)[C@H](CO)NC(=O)[C@@H]1CCCN1C(=O)c1ccc2c(c1)C(=O)OC21c2ccc(O)cc2Oc2cc(O)ccc21)[C@@H](C)O)C(=O)N[C@@H](CO)C(=O)N1CCC[C@H]1C(=O)N[C@@H](CO)C(=O)O` [pSer2‐CTD], the Kd at Rtt103p CID was 6 ± 0.2 µM.

For the compound `C[C@@H](O)[C@H](NC(=O)[C@@H]1CCCN1C(=O)[C@H](CO)NC(=O)[C@H](Cc1ccc(O)cc1)NC(=O)[C@H](CO)NC(=O)[C@@H]1CCCN1C(=O)[C@H](CO)NC(=O)[C@@H](NC(=O)[C@@H]1CCCN1C(=O)[C@H](CO)NC(=O)[C@H](Cc1ccc(O)cc1)NC(=O)[C@H](CO)NC(=O)[C@@H]1CCCN1C(=O)c1ccc2c(c1)C(=O)OC21c2ccc(O)cc2Oc2cc(O)ccc21)[C@@H](C)OP(=O)(O)O)C(=O)N[C@@H](CO)C(=O)N1CCC[C@H]1C(=O)N[C@@H](CO)C(=O)O` [pThr4‐CTD], the Kd was 48 ± 5 µM at Rtt103p CID Q19A and 15 ± 1 µM on Rtt103p CID.

With “PS pYSPTSPS YSPTSPS: FAM‐labelled CTD peptide with the pTyr1 mark in the central heptad ({FAM}-PS[pY]SPTSPSYSPTSPS)”, in the experiment with Rtt103p CID (fluorescence anisotropy, 10 nM FAM‐labelled CTD peptide, 10°C, pH 6.8), the “binding with Rtt103p (in words)” value is “completely abolished the binding”.
